Assay results reported in US12157746B2, “Tetrahydro-1H-pyrazino[2,1-a]isoindolylquinoline compounds for the treatment of autoimmune disease” (F. HOFFMANN-LA ROCHE AG, priority 2018, dated 2024).

Experiment: Human microsomal stability assay
Type: in vitro ADME
Conditions: human liver microsomes 0.5 mg/mL, 37° C., pH 7.4, NADPH regenerating system, 0-30 minutes
Experimental: Human Microsomal Stability Assay
Human liver microsomes (Cat. NO.: 452117, Corning, USA) were preincubated with test compound for 10 minutes at 37° C. in 100 mM potassium phosphate buffer, pH 7.4. The reactions were initiated by adding NADPH regenerating system. The final incubation mixtures contained […] test compound, 0.5 mg/mL liver microsomal protein, 1 mM MgCl2, 1 mM NADP, 1 unit/mL isocitric dehydrogenase and 6 mM isocitric acid in 100 mM potassium phosphate buffer, pH 7.4. After incubation times of 0, 3, 6, 9, 15 and 30 minutes at 37° C., 300 μL of cold ACN (including internal standard) was added to 100 μL incubation mixture to terminate the reaction. Following precipitation and centrifugation, 100 μL supernatant will be taken out and added 300 uL water. The amount of compound remaining in the samples was determined by LC-MS/MS. Controls of no NADPH regenerating system at zero and 30 minutes were also prepared and analyzed. The results were categorized as: low (<7.0 mLJmin/kg), medium (7.0-16.2 mL/min/kg) and high (16.2-23.2 mLJmin/kg).

Row | SMILES | CL (h) [mL/min/kg]
1 | C[C@@H]1CN(c2ccc(C#N)c3ncccc23)C[C@@H]2c3ccc(N4C[C@H](N)[C@@H](O)C4)cc3CN12 [Example 40A, 5-[(4R,10bS)-8-[(3S,4S)-3-amino-4-hydroxy-pyrrolidin-1-yl]-4-methyl-3,4,6,10b-tetrahydro-1H-pyrazino[2,1-a]isoindol-2-yl]quinoline-8-carbonitrile] | 7.0
2 | C[C@@H]1CN(c2ccc(C#N)c3ncccc23)C[C@@H]2c3ccc(N4CCN[C@H](CO)C4)cc3CN12 [Example 12, 5-[(4R,10bS)-8-[(3S)-3-(hydroxymethyl)piperazin-1-yl]-4-methyl-3,4,6,10b-tetrahydro-1H-pyrazino[2,1-a]isoindol-2-yl]quinoline-8-carbonitrile] | 6.2
3 | C[C@@H]1CN(c2ccc(C#N)c3ncccc23)C[C@@H]2c3ccc(N4CC5(CNC5)C4)cc3CN12 [Example 36, 5-[(4R,10bS)-8-(2,6-diazaspiro[3.3]heptan-2-yl)-4-methyl-3,4,6,10b-tetrahydro-1H-pyrazino[2,1-a]isoindol-2-yl]quinoline-8-carbonitrile] | 6.2
4 | C[C@@H]1CN(c2ccc(C#N)n3nccc23)C[C@@H]2c3ccc(N4CC[C@@H](N)C4)cc3CN12 [Example 96, 4-[(4R,10bS)-8-[(3R)-3-aminopyrrolidin-1-yl]-4-methyl-3,4,6,10b-tetrahydro-1H-pyrazino[2,1-a]isoindol-2-yl]pyrazolo[1,5-a]pyridine-7-carbonitrile] | 6.2
5 | C[C@@H]1CN(c2ccc(C#N)c3ncccc23)C[C@@H]2c3ccc(N4C[C@@H](N)[C@](C)(O)C4)cc3CN12 [Example 45, 5-[(4R,10bS)-4-methyl-8-[trans-(3R,4R)-4-amino-3-hydroxy-3-methyl-pyrrolidin-1-yl]-3,4,6,10b-tetrahydro-1H-pyrazino[2,1-a]isoindol-2-yl]quinoline-8-carbonitrile] | 6.2
6 | C[C@@H]1CN(c2ccc(C#N)c3ncccc23)C[C@@H]2c3ccc(N4CCOCC(N)C4)cc3CN12 (stereo partly drawn) [Example 54, 5-[(4R,10bS)-8-(6-amino-1,4-oxazepan-4-yl)-4-methyl-3,4,6,10b-tetrahydro-1H-pyrazino[2,1-a]isoindol-2-yl]quinoline-8-carbonitrile] | 8.9
7 | C[C@@H]1CN(c2ccc(C#N)c3ncsc23)C[C@@H]2c3ccc(N4CCNCC4)cc3CN12 [Example 6, 7-[(4R,10bS)-4-methyl-8-piperazin-1-yl-3,4,6,10b-tetrahydro-1H-pyrazino[2,1-a]isoindol-2-yl]-1,3-benzothiazole-4-carbonitrile] | 6.6
8 | C[C@@H]1CN(c2ccc(C#N)c3ncccc23)C[C@@H]2c3ccc(N4C[C@@H](N)[C@](C)(O)C4)cc3CN12 [Example 45A, 5-[(4R,10bS)-8-[(3R,4R)-4-amino-3-hydroxy-3-methyl-pyrrolidin-1-yl]-4-methyl-3,4,6,10b-tetrahydro-1H-pyrazino[2,1-a]isoindol-2-yl]quinoline-8-carbonitrile] | 6.2
9 | C[C@@H]1CN(c2ccc(C#N)c3ncccc23)C[C@@H]2c3ccc(N4CCNC[C@H]4CO)cc3CN12 [Example 11, 5-[(4R,10S)-8-[(2S)-2-(hydroxymethyl)piperazin-1-yl]-4-methyl-3,4,6,10b-tetrahydro-1H-pyrazino[2,1-a]isoindol-2-yl]quinoline-8-carbonitrile] | 6.2
10 | C[C@@H]1CN(c2ccc(C#N)c3ncccc23)C[C@@H]2c3ccc(N4CC5(CCN5)C4)cc3CN12 [Example 37, 5-[(4R,10bS)-8-(1,6-diazaspiro[3.3]heptan-6-yl)-4-methyl-3,4,6,10b-tetrahydro-1H-pyrazino[2,1-a]isoindol-2-yl]quinoline-8-carbonitrile] | 6.5
11 | C[C@@H]1CN(c2ccc(C#N)c3ncccc23)C[C@@H]2c3ccc(N4C[C@@H](N)[C@H](O)C4)cc3CN12 (single isomer, unassigned) [Example 40B] | 7.6
12 | C[C@@H]1CN(c2ccc(C#N)c3ncccc23)C[C@@H]2c3ccc(N4CCOC[C@H](N)C4)cc3CN12 [Example 54A, 5-[(4R,10bS)-8-[(6R)-6-amino-1,4-oxazepan-4-yl]-4-methyl-3,4,6,10b-tetrahydro-1H-pyrazino[2,1-a]isoindol-2-yl]quinoline-8-carbonitrile] | 7.5
13 | COC1CN(c2ccc3c(c2)CN2C3CN(c3ccc(C#N)c4ncccc34)C[C@H]2C)CC1N (single isomer, unassigned) [Example 16B] | 8.1
14 | CO[C@@H]1CN(c2ccc3c(c2)CN2[C@H](C)CN(c4ccc(C#N)n5nccc45)C[C@H]32)CC[C@H]1N [Example 104, 4-[(4R,10bS)-8-[(3R,4R)-4-amino-3-methoxy-1-piperidyl]-4-methyl-3,4,6,10b-tetrahydro-1H-pyrazino[2,1-a]isoindol-2-yl]pyrazolo[1,5-a]pyridine-7-carbonitrile] | 7.0
15 | C[C@@H]1CN(c2ccc(C#N)c3ncccc23)C[C@@H]2c3ccc(OCCN(C)C)cc3CN12 [Example 25, 5-[(4R,10bS)-8-[2-(dimethylamino)ethoxy]-4-methyl-3,4,6,10b-tetrahydro-1H-pyrazino[2,1-a]isoindol-2-yl]quinoline-8-carbonitrile] | 8.0
16 | N#Cc1ccc(N2CCN3Cc4cc(N5CCNCC5)ccc4C3C2)c2scnc12 (centres unmarked) [Example 4, 7-(8-piperazin-1-yl-3,4,6,10b-tetrahydro-1H-pyrazino[2,1-a]isoindol-2-yl)-1,3-benzothiazole-4-carbonitrile] | 6.2
17 | C[C@@H]1CN(c2ccc(C#N)n3ncc(F)c23)C[C@@H]2c3ccc(N4C[C@H](N)[C@@](C)(O)C4)cc3CN12 [Example 112, 4-[(4R,10bS)-8-[(3S,4S)-4-amino-3-hydroxy-3-methyl-pyrrolidin-1-yl]-4-methyl-3,4,6,10b-tetrahydro-1H-pyrazino[2,1-a]isoindol-2-yl]-3-fluoro-pyrazolo[1,5-a]pyridine-7-carbonitrile] | 8.6
18 | C[C@@H]1CN(c2ccc(C#N)c3ncccc23)C[C@@H]2c3ccc(N[C@@H]4CNC[C@@H]4F)cc3CN12 [Example 32, 5-[(4R,10bS)-8-[[(3R,4S)-4-fluoropyrrolidin-3-yl]amino]-4-methyl-3,4,6,10b-tetrahydro-1H-pyrazino[2,1-a]isoindol-2-yl]quinoline-8-carbonitrile] | 8.7
19 | [2H]c1ccc2c(N3C[C@@H](C)N4Cc5cc(N6CC(C)(N)C6)ccc5[C@H]4C3)ccc(C#N)c2n1 [Example 92, 5-[(4R,10bS)-8-(3-amino-3-methyl-azetidin-1-yl)-4-methyl-3,4,6,10b-tetrahydro-1H-pyrazino[2,1-a]isoindol-2-yl]-2-deuterio-quinoline-8-carbonitrile] | 6.4
20 | CO[C@H]1CN(c2ccc3c(c2)CN2C3CN(c3ccc(C#N)c4ncccc34)C[C@H]2C)C[C@@H]1N (single isomer, unassigned) [Example 16A] | 8.5
21 | C[C@@H]1CN(c2ccc(C#N)c3ncccc23)C[C@@H]2c3ccc(N4CCOC5CNCC54)cc3CN12 (stereo partly drawn) [Example 52, 5-[(4R,10bS)-8-(3,4a,5,6,7,7a-hexahydro-2H-pyrrolo[3,4-b][1,4]oxazin-4-yl)-4-methyl-3,4,6,10b-tetrahydro-1H-pyrazino[2,1-a]isoindol-2-yl]quinoline-8-carbonitrile] | 8.1
22 | C[C@@H]1CN(c2ccc(C#N)c3ncccc23)C[C@@H]2c3ccc(N4C[C@H](N)[C@@](C)(O)C4)cc3CN12 [Example 45B, 5-[(4R,10bS)-8-[(3S,4S)-4-amino-3-hydroxy-3-methyl-pyrrolidin-1-yl]-4-methyl-3,4,6,10b-tetrahydro-1H-pyrazino[2,1-a]isoindol-2-yl]quinoline-8-carbonitrile] | 6.2
23 | C[C@@H]1CN(c2ccc(C#N)c3ncccc23)C[C@@H]2c3ccc(N4C[C@@H](F)[C@@H](N)C4)cc3CN12 [Example 46, 5-[(4R,10bS)-8-[(3S,4R)-3-amino-4-fluoro-pyrrolidin-1-yl]-4-methyl-3,4,6,10b-tetrahydro-1H-pyrazino[2,1-a]isoindol-2-yl]quinoline-8-carbonitrile] | 8.8
24 | C[C@@H]1CN(c2ccc(C#N)c3ncccc23)C[C@@H]2c3ccc(N4C[C@@H](N)[C@H](F)C4)cc3CN12 [Example 48, 5-[(4R,10bS)-8-[(3R,4R)-3-amino-4-fluoro-pyrrolidin-1-yl]-4-methyl-3,4,6,10b-tetrahydro-1H-pyrazino[2,1-a]isoindol-2-yl]quinoline-8-carbonitrile] | 8.9
25 | CO[C@@H]1CN(c2ccc3c(c2)CN2C3CN(c3ccc(C#N)c4ncccc34)C[C@H]2C)C[C@@H]1N (relative stereo) [Example 17, 5-[(4R,10bS)-8-[cis-3-amino-4-methoxy-pyrrolidin-1-yl]-4-methyl-3,4,6,10b-tetrahydro-1H-pyrazino[2,1-a]isoindol-2-yl]quinoline-8-carbonitrile] | 6.2
26 | [2H]c1ccc2c(N3C[C@@H](C)N4Cc5cc(N6CC7CNCC(C6)O7)ccc5[C@H]4C3)ccc(C#N)c2n1 [Example 93, 5-[(4R,10bS)-4-methyl-8-(9-oxa-3,7-diazabicyclo[3.3.1]nonan-3-yl)-3,4,6,10b-tetrahydro-1H-pyrazino[2,1-a]isoindol-2-yl]-2-deuterio-quinoline-8-carbonitrile] | 8.4
